Results on 14 compounds are retold here after US10004732B2 (Novartis AG, priority 2014, dated 2018).

The IC50 is the concentration that inhibits the measured activity by half.

For one data set, the target named is PI 3-kinase alpha (Homo sapiens, UniProt P42336). Briefly: Kinase Glo Luminescent Kinase Assay (Kglo), assay A. Type of data set: biochemical. The conditions noted are these: read-out: Assay A PI3Kα IC50.
Data set [1] is described as follows: Microsomal clearance assay (M). The conditions noted are these: intrinsic clearance in rat liver microsomes.
Experimental: The experiments were performed in 96-well glass plates at 37° C. on an automated Tecan EVO platform. Test compounds at a concentration of 10 mM in pure DMSO were diluted 1:1000 in water to 10 μM. […] Reactions were initiated by the addition of 150 μL of a cofactor solution containing 2 mM NADPH.
For a further data set, the target named is PI 3-kinase gamma (Homo sapiens, UniProt P48736). Briefly: TR-FRET Adapta assay, assay E. Type of data set: biochemical. The conditions noted are these: read-out: Assay E PI3Kγ IC50. (In TR-FRET formats the signal depends on donor and acceptor labels being close together.)
Sequence of PI 3-kinase gamma (P48736 whole entry): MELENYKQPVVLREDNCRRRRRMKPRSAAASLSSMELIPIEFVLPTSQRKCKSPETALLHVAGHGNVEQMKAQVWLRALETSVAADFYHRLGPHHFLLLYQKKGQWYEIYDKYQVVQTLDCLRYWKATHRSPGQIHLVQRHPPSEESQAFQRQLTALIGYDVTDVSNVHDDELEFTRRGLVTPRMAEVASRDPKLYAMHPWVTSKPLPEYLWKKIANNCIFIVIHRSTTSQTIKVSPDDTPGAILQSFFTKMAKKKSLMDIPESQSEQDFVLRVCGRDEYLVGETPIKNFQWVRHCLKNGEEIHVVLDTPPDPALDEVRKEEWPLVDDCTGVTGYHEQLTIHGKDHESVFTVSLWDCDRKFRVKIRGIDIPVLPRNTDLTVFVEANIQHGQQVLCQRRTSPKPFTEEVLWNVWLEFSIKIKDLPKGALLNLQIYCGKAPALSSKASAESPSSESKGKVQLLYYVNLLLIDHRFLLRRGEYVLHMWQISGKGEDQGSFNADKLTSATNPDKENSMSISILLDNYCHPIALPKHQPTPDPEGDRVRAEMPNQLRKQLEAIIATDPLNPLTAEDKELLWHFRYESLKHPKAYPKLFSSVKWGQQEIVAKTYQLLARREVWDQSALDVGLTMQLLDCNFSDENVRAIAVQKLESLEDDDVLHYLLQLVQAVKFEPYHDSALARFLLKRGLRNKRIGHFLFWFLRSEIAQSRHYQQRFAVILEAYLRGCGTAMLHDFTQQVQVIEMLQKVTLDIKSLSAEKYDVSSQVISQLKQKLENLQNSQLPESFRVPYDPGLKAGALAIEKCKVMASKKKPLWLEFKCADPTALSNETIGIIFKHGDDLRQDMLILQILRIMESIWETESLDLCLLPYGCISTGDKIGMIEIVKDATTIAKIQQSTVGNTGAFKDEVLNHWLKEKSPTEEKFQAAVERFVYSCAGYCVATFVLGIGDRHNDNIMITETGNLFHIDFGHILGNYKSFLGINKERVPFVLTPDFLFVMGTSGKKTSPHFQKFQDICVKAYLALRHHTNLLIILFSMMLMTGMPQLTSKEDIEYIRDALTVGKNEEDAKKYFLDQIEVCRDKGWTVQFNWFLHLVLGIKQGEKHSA
The target of another data set is Vps34 (Homo sapiens, UniProt Q8NEB9). In words: Kinase Glo Luminescent Kinase Assay (Kglo), assay C. It counts as biochemical. The conditions noted are these: read-out: Assay C VPS34 IC50. On the technique in general: Kinase-Glo measures the ATP left after a reaction by luminescence.
Sequence of Vps34 (Q8NEB9 whole entry, species assumed): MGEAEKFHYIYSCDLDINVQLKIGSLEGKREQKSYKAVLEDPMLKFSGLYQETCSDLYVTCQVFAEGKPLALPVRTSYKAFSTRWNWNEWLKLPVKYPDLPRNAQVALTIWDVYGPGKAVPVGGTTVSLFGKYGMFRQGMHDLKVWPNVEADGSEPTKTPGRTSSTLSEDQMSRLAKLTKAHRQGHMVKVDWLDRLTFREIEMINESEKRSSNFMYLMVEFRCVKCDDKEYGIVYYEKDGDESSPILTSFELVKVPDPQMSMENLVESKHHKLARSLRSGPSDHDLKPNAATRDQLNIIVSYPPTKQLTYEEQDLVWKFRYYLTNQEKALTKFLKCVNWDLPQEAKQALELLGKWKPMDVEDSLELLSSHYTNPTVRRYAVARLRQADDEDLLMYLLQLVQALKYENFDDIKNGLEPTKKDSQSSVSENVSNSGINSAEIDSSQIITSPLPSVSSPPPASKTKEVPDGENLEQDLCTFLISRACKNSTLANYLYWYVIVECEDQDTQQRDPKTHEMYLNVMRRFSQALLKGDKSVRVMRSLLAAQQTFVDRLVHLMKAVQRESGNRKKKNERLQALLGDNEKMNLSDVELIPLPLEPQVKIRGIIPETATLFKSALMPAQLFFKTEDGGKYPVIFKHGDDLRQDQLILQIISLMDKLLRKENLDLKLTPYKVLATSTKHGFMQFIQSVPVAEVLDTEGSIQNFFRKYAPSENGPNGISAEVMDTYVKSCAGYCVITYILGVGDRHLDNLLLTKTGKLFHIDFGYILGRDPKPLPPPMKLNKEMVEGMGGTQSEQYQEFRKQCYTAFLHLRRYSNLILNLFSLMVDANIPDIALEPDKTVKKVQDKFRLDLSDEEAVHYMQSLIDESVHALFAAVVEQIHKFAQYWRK
Data set [2] concerns IL-8-induced neutrophil shape change in human whole blood. In words: Whole blood neutrophil shape change assay (L). It counts as cell-based. The following applies: IL-8, human whole blood, read-out: Assay L WBSC IC50.
In another data set the target is PI 4-kinase beta (Homo sapiens, UniProt Q9UBF8). In words: Kinase Glo Luminescent Kinase Assay (Kglo), assay D. It counts as biochemical. The following applies: read-out: Assay D PI4Kβ IC50.
Sequence of PI 4-kinase beta (Q9UBF8 whole entry): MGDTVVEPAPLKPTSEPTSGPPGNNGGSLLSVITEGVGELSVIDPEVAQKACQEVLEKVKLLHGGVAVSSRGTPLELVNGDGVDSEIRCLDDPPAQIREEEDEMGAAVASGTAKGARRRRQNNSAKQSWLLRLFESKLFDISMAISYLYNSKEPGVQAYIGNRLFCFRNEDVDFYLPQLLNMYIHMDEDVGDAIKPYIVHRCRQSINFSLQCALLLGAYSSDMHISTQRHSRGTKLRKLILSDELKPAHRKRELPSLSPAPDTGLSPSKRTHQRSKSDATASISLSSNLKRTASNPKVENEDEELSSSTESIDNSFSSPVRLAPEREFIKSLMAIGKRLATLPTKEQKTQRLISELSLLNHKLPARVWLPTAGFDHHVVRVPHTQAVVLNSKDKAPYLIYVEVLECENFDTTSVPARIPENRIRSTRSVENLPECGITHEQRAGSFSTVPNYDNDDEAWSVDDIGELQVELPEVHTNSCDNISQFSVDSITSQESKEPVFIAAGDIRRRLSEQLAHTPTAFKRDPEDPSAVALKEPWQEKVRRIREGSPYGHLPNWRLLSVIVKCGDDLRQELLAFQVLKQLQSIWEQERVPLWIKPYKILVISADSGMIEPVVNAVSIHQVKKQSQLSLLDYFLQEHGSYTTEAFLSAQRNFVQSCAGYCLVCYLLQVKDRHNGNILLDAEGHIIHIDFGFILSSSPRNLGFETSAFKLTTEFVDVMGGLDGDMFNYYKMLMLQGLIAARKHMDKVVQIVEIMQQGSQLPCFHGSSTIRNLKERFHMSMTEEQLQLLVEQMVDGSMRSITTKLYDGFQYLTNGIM
The target of a further data set is mTOR (Homo sapiens, UniProt P42345). Briefly: Lanthascreen kinase binding assay, assay G. The following applies: read-out: Assay G mTOR IC50.
In a further data set the target is PI 3-kinase delta (Homo sapiens, UniProt O00329). Briefly: TR-FRET Adapta assay, assay F. The following applies: read-out: Assay F PI3Kδ IC50.
Sequence of PI 3-kinase delta (O00329 whole entry): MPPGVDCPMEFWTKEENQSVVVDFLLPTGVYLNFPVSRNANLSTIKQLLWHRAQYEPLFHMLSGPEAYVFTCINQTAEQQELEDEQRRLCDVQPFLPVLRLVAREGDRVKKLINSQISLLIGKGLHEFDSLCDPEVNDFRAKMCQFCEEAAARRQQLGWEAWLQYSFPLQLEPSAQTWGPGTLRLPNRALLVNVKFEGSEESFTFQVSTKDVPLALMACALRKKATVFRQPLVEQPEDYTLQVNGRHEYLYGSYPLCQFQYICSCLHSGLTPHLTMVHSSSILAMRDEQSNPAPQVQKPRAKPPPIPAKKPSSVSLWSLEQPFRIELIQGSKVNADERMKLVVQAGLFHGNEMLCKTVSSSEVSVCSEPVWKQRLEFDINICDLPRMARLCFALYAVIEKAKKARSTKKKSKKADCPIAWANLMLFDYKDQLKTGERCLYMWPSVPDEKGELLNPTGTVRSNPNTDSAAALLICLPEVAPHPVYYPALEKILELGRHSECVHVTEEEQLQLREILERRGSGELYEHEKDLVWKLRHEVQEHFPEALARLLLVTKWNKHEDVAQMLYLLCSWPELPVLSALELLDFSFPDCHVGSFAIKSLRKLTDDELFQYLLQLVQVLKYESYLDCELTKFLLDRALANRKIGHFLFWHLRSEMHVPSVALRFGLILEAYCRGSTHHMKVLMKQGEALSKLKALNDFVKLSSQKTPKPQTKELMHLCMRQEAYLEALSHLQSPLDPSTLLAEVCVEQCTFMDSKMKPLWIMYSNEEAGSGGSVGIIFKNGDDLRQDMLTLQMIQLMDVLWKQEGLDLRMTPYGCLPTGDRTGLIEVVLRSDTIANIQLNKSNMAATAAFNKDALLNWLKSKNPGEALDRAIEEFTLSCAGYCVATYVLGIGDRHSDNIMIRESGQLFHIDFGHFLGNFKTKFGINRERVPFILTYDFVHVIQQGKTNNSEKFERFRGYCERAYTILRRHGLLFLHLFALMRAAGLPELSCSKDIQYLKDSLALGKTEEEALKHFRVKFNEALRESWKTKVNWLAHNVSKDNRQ
Sequence of PI 3-kinase delta (P27986 461-568 partner): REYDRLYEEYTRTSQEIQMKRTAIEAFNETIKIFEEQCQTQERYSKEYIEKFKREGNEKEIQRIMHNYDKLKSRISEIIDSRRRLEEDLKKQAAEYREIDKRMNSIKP
The target of a further data set is PI 3-kinase beta (Homo sapiens, UniProt P42338). In words: Kinase Glo Luminescent Kinase Assay (Kglo), assay B. The conditions noted are these: read-out: Assay B PI3Kβ IC50. Type of data set: biochemical.

Read-outs that look alike come from different tables or passages of the source.

Sequence of PI 3-kinase alpha (P42336 whole entry): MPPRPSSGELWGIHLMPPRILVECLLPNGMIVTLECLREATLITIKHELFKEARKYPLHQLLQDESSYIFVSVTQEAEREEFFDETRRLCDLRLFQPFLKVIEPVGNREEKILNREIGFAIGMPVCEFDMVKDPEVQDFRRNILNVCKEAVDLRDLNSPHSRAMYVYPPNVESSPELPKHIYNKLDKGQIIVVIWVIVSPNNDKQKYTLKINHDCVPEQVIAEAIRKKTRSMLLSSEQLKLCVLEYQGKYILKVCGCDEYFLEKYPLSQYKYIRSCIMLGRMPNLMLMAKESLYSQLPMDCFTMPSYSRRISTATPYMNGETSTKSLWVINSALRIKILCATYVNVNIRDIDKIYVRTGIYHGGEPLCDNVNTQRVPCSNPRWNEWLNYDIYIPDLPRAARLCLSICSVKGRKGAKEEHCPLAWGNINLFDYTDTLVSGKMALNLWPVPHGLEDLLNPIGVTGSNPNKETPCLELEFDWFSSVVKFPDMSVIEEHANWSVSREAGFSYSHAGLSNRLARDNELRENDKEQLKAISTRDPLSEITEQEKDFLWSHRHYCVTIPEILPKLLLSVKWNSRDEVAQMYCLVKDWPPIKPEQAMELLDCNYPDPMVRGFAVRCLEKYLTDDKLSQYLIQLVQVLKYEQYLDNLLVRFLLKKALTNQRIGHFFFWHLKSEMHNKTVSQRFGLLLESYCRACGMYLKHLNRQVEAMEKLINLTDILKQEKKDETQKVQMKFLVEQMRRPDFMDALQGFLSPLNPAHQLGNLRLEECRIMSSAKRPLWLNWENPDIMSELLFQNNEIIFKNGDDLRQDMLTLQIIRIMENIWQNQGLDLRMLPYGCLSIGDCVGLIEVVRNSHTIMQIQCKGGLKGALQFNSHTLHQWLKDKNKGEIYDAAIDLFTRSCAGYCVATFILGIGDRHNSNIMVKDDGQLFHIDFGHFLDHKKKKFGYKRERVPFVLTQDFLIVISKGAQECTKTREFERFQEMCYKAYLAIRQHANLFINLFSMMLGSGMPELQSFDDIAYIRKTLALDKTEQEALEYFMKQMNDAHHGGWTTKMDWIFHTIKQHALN
Experimental for mTOR: Lanthascreen™ Kinase Binding Assay for mTOR (G)
Binding of an inhibitor to the kinase competes for binding with the tracer, resulting in a loss of FRET.
50 nL of compound dilutions were dispensed onto white 384-well small volume polystyrene plate.

Consider `Cc1ccc(S(=O)(=O)NCC[C@@H](O)C(F)(F)F)cc1-c1cnc(N)c(-c2cn(C)nc2C)n1` (single isomer, unassigned) [Example 52a, (R)-3-(5-Amino-6-(1,3-dimethyl-1H-pyrazol-4-yl)pyrazin-2-yl)-4-methyl-N-(4,4,4-trifluoro-3-hydroxybutyl)benzenesulfonamide or (S)-3-(5-Amino-6-(1,3-dimethyl-1H-pyrazol-4-yl)pyrazin-2-yl)-4-methyl-N-(4,4,4-trifluoro-3-hydroxybutyl)benzenesulfonamide], for which the half-inhibitory concentration (IC50) was 0.17 µM on PI 3-kinase alpha; 0.016 µM on PI 3-kinase gamma; > 10 µM on Vps34; 0.806 µM in data set [2]; 5.5 µM on PI 4-kinase beta. Further, in data set [1], the “Assay M RLM CI(int)” value is 60 µL/min/mg.

In the case of `Cc1ccc(S(=O)(=O)NCC2(O)CCOCC2)cc1-c1cnc(N)c(-n2cncn2)n1` [Example 32, 3-(5-Amino-6-[1,2,4]triazol-1-yl-pyrazin-2-yl)-N-(4-hydroxy-tetrahydropyran-4-ylmethyl)-4-methylbenzenesulfonamide], in data set [1], the “Assay M RLM CI(int)” value came out at 28 µL/min/mg. For the same compound, the half-inhibitory concentration (IC50) at mTOR is > 10 µM; at Vps34 it was > 10 µM; in [2] (Homo sapiens, Neutrophil) it was 0.668 µM; on PI 4-kinase beta, 4.05 µM.

Take `Cc1ncc(-c2nc(-c3cc(S(=O)(=O)NCC4COC4)ccc3C)cnc2N)s1` [Example 45.1, 3-(5-Amino-6-(2-methylthiazol-5-yl)pyrazin-2-yl)-4-methyl-N-(oxetan-3-ylmethyl)benzenesulfonamide]: the IC50 at PI 3-kinase alpha worked out at 0.05 µM; at PI 3-kinase delta, 0.08 µM; at PI 3-kinase gamma it was 0.011 µM; at Vps34 it was 1.9 µM; in [2] (Homo sapiens, Neutrophil), 0.306 µM; on PI 4-kinase beta it was 3 µM. Besides, the IC50 on PI 3-kinase beta is 0.2 µM. For the same compound, the “Assay M RLM CI(int)” value in data set [1] was found to be 70 µL/min/mg.

As for `Cc1ccc(S(=O)(=O)NCC(C)(C)O)cc1-c1cnc(N)c(-c2cnn(C)c2)n1` [Example 46.2, 3-(5-Amino-6-(1-methyl-1H-pyrazol-4-yl)pyrazin-2-yl)-N-(2-hydroxy-2-methylpropyl)-4-methylbenzenesulfonamide], the IC50 on PI 3-kinase alpha is 0.48 µM; at PI 3-kinase delta, 0.73 µM; on mTOR, 9.7 µM; on PI 3-kinase gamma, 0.054 µM; at Vps34 it was > 10 µM; in data set [2] (Homo sapiens, Neutrophil), 0.597 µM. Further, the half-maximal inhibitory concentration (IC50) stood at 6.2 µM at PI 4-kinase beta and 2 µM at PI 3-kinase beta. For the same compound, the “Assay M RLM CI(int)” value in [1] turned out to be 49 µL/min/mg.

For `Cc1ccc(S(=O)(=O)NCC(C)(C)O)cc1-c1cnc(N)c(-n2cc(C)c(C)n2)n1` [Example 47, 3-(5-Amino-6-(3,4-dimethyl-1H-pyrazol-1-yl)pyrazin-2-yl)-N-(2-hydroxy-2-methylpropyl)-4-methyl benzenesulfonamide], the IC50 at PI 3-kinase alpha was 0.33 µM; on PI 3-kinase delta, 0.53 µM; on mTOR, > 10 µM; at PI 3-kinase gamma, 0.049 µM; on Vps34, > 10 µM; in [2] (Homo sapiens, Neutrophil), 3.14 µM. Also, the concentration for half-maximal inhibition (IC50) is 8.7 µM on PI 4-kinase beta and 6 µM on PI 3-kinase beta. Besides, the “Assay M RLM CI(int)” value in [1] was found to be 140 µL/min/mg.

As for `Cc1nc(C)n(-c2nc(-c3cc(S(=O)(=O)NCC(C)(C)O)ccc3C)cnc2N)n1` [Example 49, 3-(5-Amino-6-(3,5-dimethyl-1H-1,2,4-triazol-1-yl)pyrazin-2-yl)-N-(2-hydroxy-2-methylpropyl)-4-methylbenzenesulfonamide], the IC50 at PI 3-kinase alpha is 0.62 µM; at PI 3-kinase delta, 1.7 µM; on mTOR it was > 10 µM; at PI 3-kinase gamma, 0.049 µM; at Vps34, > 10 µM; in [2] (Homo sapiens, Neutrophil), 0.856 µM. The half-inhibitory concentration (IC50) is > 10 µM on PI 4-kinase beta and 5.3 µM on PI 3-kinase beta. Besides, the “Assay M RLM CI(int)” value in data set [1] came out at 20 µL/min/mg.

On to `Cc1cc(-c2nc(-c3cc(S(=O)(=O)NCCC(C)(C)O)ccc3C)cnc2N)on1` [Example 89, 3-(5-Amino-6-(3-methylisoxazol-5-yl)pyrazin-2-yl)-N-(3-hydroxy-3-methylbutyl)-4-methylbenzenesulfonamide], for which the concentration for half-maximal inhibition (IC50) on PI 3-kinase alpha is 0.42 µM; at PI 3-kinase delta, 0.84 µM; at mTOR it was > 10 µM; at Vps34 it was 3.4 µM; in data set [2] (Homo sapiens, Neutrophil), 3.7 µM; at PI 4-kinase beta it was 7 µM. For the same compound, the IC50 at PI 3-kinase beta was found to be 1.3 µM. Also, the “Assay M RLM CI(int)” value in data set [1] amounted to 46 µL/min/mg.

Turning to `Cc1noc(-c2nc(-c3cc(S(=O)(=O)NCC(C)(C)CO)ccc3C)cnc2N)n1` [Example 92, 3-(5-Amino-6-(3-methyl-1,2,4-oxadiazol-5-yl)pyrazin-2-yl)-N-(3-hydroxy-2,2-dimethylpropyl)-4-methylbenzenesulfonamide], the IC50 on PI 3-kinase alpha is 1.4 µM; at PI 3-kinase delta, 0.69 µM; at mTOR, > 9.1 µM; on PI 3-kinase gamma, 0.073 µM; at Vps34, > 9.1 µM; in data set [2] (Homo sapiens, Neutrophil), 1.16 µM. The half-maximal inhibitory concentration (IC50) was > 9.1 µM at PI 4-kinase beta and 8.2 µM at PI 3-kinase beta. Also, in [1], the “Assay M RLM CI(int)” value worked out at 64 µL/min/mg.

For `Cc1ccc(S(=O)(=O)NCC(C)(C)O)cc1-c1cnc(N)c(-c2nc(C(C)C)no2)n1` [Example 97, 3-(5-Amino-6-(3-isopropyl-1,2,4-oxadiazol-5-yl)pyrazin-2-yl)-N-(2-hydroxy-2-methylpropyl)-4-methylbenzenesulfonamide], the “Assay M RLM CI(int)” value in data set [1] amounted to 60 µL/min/mg. The concentration for half-maximal inhibition (IC50) is > 10 µM at mTOR; > 10 µM on Vps34; 2.15 µM in [2] (Homo sapiens, Neutrophil); > 10 µM on PI 4-kinase beta.

Consider `Cc1cc(-c2nc(-c3cc(S(=O)(=O)NC4CCC(CO)CC4)ccc3C)cnc2N)ccn1` (centres unmarked) [Example 129.1, 3-(5-amino-6-(2-methylpyridin-4-yl)pyrazin-2-yl)-N-(4-(hydroxymethyl)cyclohexyl)-4-methylbenzenesulfonamide], for which the half-maximal inhibitory concentration (IC50) is 0.19 µM on PI 3-kinase alpha; 0.25 µM at PI 3-kinase delta; 6.3 µM at mTOR; 0.023 µM at PI 3-kinase gamma; > 9.1 µM at Vps34; 0.721 µM in [2] (Homo sapiens, Neutrophil). Besides, the IC50 at PI 4-kinase beta amounted to 6.5 µM; on PI 3-kinase beta it was 6.3 µM.

Take `Cc1cc(-c2nc(-c3cc(S(=O)(=O)NC4CC(F)(F)C4)ccc3C)cnc2N)ccn1` [Example 129.2, 3-(5-amino-6-(2-methylpyridin-4-yl)pyrazin-2-yl)-N-(3,3-difluorocyclobutyl)-4-methylbenzenesulfonamide]: the IC50 is 0.28 µM on PI 3-kinase alpha; 1.2 µM at PI 3-kinase delta; 6.1 µM at mTOR; 0.022 µM at PI 3-kinase gamma; > 9.1 µM at Vps34; 2.42 µM in [2] (Homo sapiens, Neutrophil). Further, the IC50 on PI 4-kinase beta is 7 µM; at PI 3-kinase beta it was 4.3 µM. Besides, in data set [1], the “Assay M RLM CI(int)” value was found to be 130 µL/min/mg.

For `Cc1cc(-c2nc(-c3cc(S(=O)(=O)NCC4(O)CCC4)ccc3C)cnc2N)ccn1` [Example 129.5, 3-(5-amino-6-(2-methylpyridin-4-yl)pyrazin-2-yl)-N-((1-hydroxycyclobutyl)methyl)-4-methylbenzenesulfonamide], the 50% inhibitory concentration (IC50) at PI 3-kinase alpha was 0.27 µM; at PI 3-kinase delta it was 0.57 µM; at mTOR it was 6.5 µM; at PI 3-kinase gamma, 0.038 µM; at Vps34, > 9.1 µM; in data set [2] (Homo sapiens, Neutrophil) it was 1.17 µM. The values for the 50% inhibitory concentration (IC50) on PI 4-kinase beta and at PI 3-kinase beta were 5 µM and > 9.1 µM, respectively. Moreover, the “Assay M RLM CI(int)” value in data set [1] was determined as 79 µL/min/mg.

Regarding `Cc1cc(-c2nc(-c3cc(S(=O)(=O)NC4CCN(C(C)C)CC4)ccc3C)cnc2N)ccn1` [Example 129.21, 3-(5-amino-6-(2-methylpyridin-4-yl)pyrazin-2-yl)-N-(1-isopropylpiperidin-4-yl)-4-methylbenzenesulfonamide], the IC50 on PI 3-kinase alpha is 2.9 µM; on PI 3-kinase delta it was 1 µM; at mTOR it was > 9.1 µM; at PI 3-kinase gamma, 0.053 µM; on Vps34 it was > 9.1 µM; in data set [2] (Homo sapiens, Neutrophil) it was 8.95 µM. The IC50 at PI 4-kinase beta and at PI 3-kinase beta was > 9.1 µM each time.

Consider `CCN1CCC[C@@H]1CNS(=O)(=O)c1ccc(C)c(-c2cnc(N)c(-c3ccnc(C)c3)n2)c1` [Example 129.25, (R)-3-(5-amino-6-(2-methylpyridin-4-yl)pyrazin-2-yl)-N-((1-ethylpyrrolidin-2-yl)methyl)-4-methylbenzenesulfonamide], for which the IC50 on PI 3-kinase alpha is 0.54 µM; at PI 3-kinase delta it was 0.38 µM; on mTOR it was > 9.1 µM; on PI 3-kinase gamma, 0.042 µM; at Vps34, > 9.1 µM; in data set [2] (Homo sapiens, Neutrophil), 2.95 µM. The 50% inhibitory concentration (IC50) is > 9.1 µM on PI 4-kinase beta and 2.3 µM at PI 3-kinase beta.
